This note sets out measurements from article PMC4992173, “Divergent synthesis and identification of the cellular targets of deoxyelephantopins” (Nature Communications, 2016).

For data set [1], the target named is T1, Glyoxylate reductase/hydroxypyruvate reductase (GRHPR) (Homo sapiens, UniProt Q9UBQ7).
T1 construct: endogenous in cells; host or cells: MCF7
Description: In situ competitive profiling in live MCF7 cells (LFQ): GRHPR. In kind it is cell-based. To be noted: protein GRHPR, 4 h, then 10 µM 24c, n=4. The text has this: In our efforts to determine the direct molecular targets of deoxyelephantopin we first performed a gel-based competitive in situ proteomic profiling assay[41] […] While the greater conformational flexibility of probe 24c could potentially lead to more promiscuous target engagement relatively to deoxyelephantopin, it was favoured based on the fact that an alkyne moiety appended to the rigid scaffold of deoxyelephantopin may hinder some of its interactions. MCF7 cells were pretreated with various concentrations of deoxyelephantopin for 4 h, harvested, lysed and the lysates were treated with the fluorogenic probe 24c-Cy3 (10 μM; Supplementary Fig. 10). […] Furthermore, cells were pretreated with 20 μM concentration of deoxyelephantopin or 24c and the proteomic profiles were compared (Fig. 6b, Supplementary Fig. 11). Multiple bands were detected that were equally competed by both DEP and 24c, thus again confirming that 24c can be used as an acceptable clickable analogue of deoxyelephantopin in pulldown assays. Having established the optimal labelling conditions by SDS–PAGE, we next carried out a mass spectrometry-based competitive profiling assay[42] coupled with the method of stable isotope labelling of amino acids in culture (SILAC)[43]. […]
Figure 6 Proteome-wide identification of deoxyelephantopin targets. […] Quantification was performed using label-free quantification (LFQ) method (n=4). […]

Data set [2] in a line: Cell viability in MCF7 cells, compounds at 1 μM for 3 days. In kind it is cell-based. Conditions: human, 1 μM concentration, read-out: cellular viability. The procedure:
We began our biological investigations by assaying the cytotoxicity of natural deoxyelephantopin (DEP) and its unnatural analogues in four different cancer cell lines (Fig. 5a, Supplementary Figs 6–8).
Supplementary figure 8: Cell viability measurements in MCF7 cells. All compounds were tested at 1 μM concentration for 3 days (values±SD are shown; n = 3).
Supplementary figure 9: Propidium iodide and DAPI staining of MCF7 cells treated with either DMSO, 10% ethanol (necrosis positive control) or 20 µM DEP for 8 h. Scale bar […]
Biological materials. All materials were purchased from Sigma Aldrich unless otherwise stated. DMEM/High glucose media, phosphate buffered saline (PBS), MEM Non-Essential Amino Acids, Penicillin-Streptomycin (Pen/Strep) and Trypsin-EDTA were obtained from Life Technologies. Protein concentration was determined using the Bradford assay (Bio-Rad).
Cell culture and preparation of lysates. […] Cells were lysed by sonication to form cell lysates and protein concentration was determined using the Bradford […]
’ cells/mL and HeLa: 1 ’ cells/mL) in a 96-well plate and allowed to attach overnight. […] Cells were imaged using a SpectraMax i3 plate reader equipped with a SpectraMax MiniMax imaging cytometer (Molecular Devices). […]
Caspase activity labeling for fluorescence cell imaging. […]

T1 sequence (Q9UBQ7 whole entry): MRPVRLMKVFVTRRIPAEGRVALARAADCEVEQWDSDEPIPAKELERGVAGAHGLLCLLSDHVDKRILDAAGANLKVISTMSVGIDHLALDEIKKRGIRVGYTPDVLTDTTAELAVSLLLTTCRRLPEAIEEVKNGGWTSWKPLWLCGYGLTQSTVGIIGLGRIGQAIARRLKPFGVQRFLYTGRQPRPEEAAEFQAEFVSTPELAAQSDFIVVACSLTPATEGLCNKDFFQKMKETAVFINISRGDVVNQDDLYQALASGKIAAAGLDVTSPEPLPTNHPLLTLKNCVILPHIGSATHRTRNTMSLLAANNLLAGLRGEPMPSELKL

`C=C(C)C(=O)O[C@H]1CC2=C[C@@H](C/C(C)=C/[C@H]3OC(=O)C(=C)[C@H]13)OC2=O` [deoxyelephantopin]: in data set [1], the “LFQ ratio 20 µM Deoxyelephantopin/DMSO with 24c” value was 0.00. Besides, in data set [2], the viability at 3 days, 1 µM is less than 30%.
